Data from paper PMC10899790, “A bromodomain-independent mechanism of gene regulation by the BET inhibitor JQ1: direct activation of nuclear receptor PXR” (Nucleic Acids Research, 2023).

Assays:
[1] = test system: HepG2 cells; test: Cytotoxicity assay (CellTiter-Glo); assay type: cell-based, human; conditions: HepG2, 24 h
Description: HepG2 cells (1 × 10^4/well in 25 μl phenol red-free DMEM supplemented with 5% charcoal/dextran-treated FBS) were plated and treated as in the transactivation assays. After 24 h compound treatment, the CellTiter-Glo Luminescent Cell Viability Assay (Promega) and an EnVision microplate reader were used to assess cytotoxicity. DMSO wells with cells served as negative controls, and wells without cells served as positive controls. The averaged luminescence signal of the wells without cells was subtracted from the luminescence signals of all other wells, and the background subtracted values were normalized to DMSO-treated wells containing cells to obtain percent cell viability.

[2] = LC–MS/MS test of JQ1 stability in crystallization solution; assay type: physicochemical; conditions: 1 μM JQ1, crystallization solution pH 7.4, 20°C
Description: An Echo 650 Acoustic Liquid Handler was used to dispense 50 nl/well of 1 mM JQ1 into 96-well assay plates (Corning Inc., one plate per time point, six replicate wells per time point). Crystallization solution (50 μl) was added to each well to yield final concentrations of 1 μM JQ1 and 0.1% DMSO. […] This composition matched the final composition of a crystallization drop containing a 1:1 ratio of protein to reservoir solution. To the 0-day plate, 100 μl cold acetonitrile (ACN) containing 400 ng/ml warfarin (Fluka Chemical Corporation) as the internal standard was immediately added to each well. The remaining plates were incubated at 20°C for 1–8 days followed by quenching with 100 μl cold ACN containing 400 ng/ml warfarin. Quenched samples were sealed and stored at -20°C until analysis. On the day of analysis, plates were thawed, shaken at 600 rpm for 10 min, and centrifuged at 2000 × g for 10 min. The supernatants (20 μl) were transferred to a new analytical 96-well plate (Corning Inc.) and diluted with 180 μl 50% ACN in Milli-Q water. Chromatographic separation was performed on an ACQUITY UPLC BEH C18 column (1.7 μm, 2.1 mm × 50 mm) (Waters Corporation) using the Triple Quad 6500 System (AB Sciex). The injection volume was 7 μl. […] Data were acquired using Analyst Software (AB Sciex, version 1.6.3) and analyzed using MultiQuant Software (AB Sciex, version 3.0.3).

Cc1sc2c(c1C)C(c1ccc(Cl)cc1)=N[C@@H](CC(=O)OC(C)(C)C)c1nnc(C)n1-2 [JQ1, (+)-JQ1]
cytotoxicity (cell viability) [1]: exhibited cytotoxicity at the concentrations required to activate the CYP3A4-luciferase reporter
stability in the crystal growth condition [2]: does not degrade over a period of eight days
